Measured values reported in patent publication US10052320B2, “Substituted quinoxalines as FGFR kinase inhibitors” (ASTEX THERAPEUTICS LIMITED, priority 2011, dated 2018).
Where two headings read alike, the source gives them in different places.

Tests used:
[1] = system: Ba/F3-FGFR1-transfected cells in the presence of 10 ng/ml murine IL3; test: Ba/F3-FGFR1 (plus IL3) cellular proliferation counterscreen, Alamar Blue; assay type: cell-based; conditions: for IC50: Mus musculus
Summary of the method: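 24 h cmpd exposure, 37 °C/5% CO2; phenol red-free RPMI-1640, 10% FBS; 20000 cells/well (384) or 10000 cells/well (96); Alamar Blue (0.15 mM resazurin) 4 h; RFU ex 540/em 590.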

[2] = molecular target: T1, Ba/F3-Flt3-transfected cells (Homo sapiens, UniProt P36888, cells depend on it, form not given); test: Ba/F3-Flt3 (minus IL3) cellular proliferation assay, Alamar Blue; assay type: cell-based
T1 sequence (P36888 1-993): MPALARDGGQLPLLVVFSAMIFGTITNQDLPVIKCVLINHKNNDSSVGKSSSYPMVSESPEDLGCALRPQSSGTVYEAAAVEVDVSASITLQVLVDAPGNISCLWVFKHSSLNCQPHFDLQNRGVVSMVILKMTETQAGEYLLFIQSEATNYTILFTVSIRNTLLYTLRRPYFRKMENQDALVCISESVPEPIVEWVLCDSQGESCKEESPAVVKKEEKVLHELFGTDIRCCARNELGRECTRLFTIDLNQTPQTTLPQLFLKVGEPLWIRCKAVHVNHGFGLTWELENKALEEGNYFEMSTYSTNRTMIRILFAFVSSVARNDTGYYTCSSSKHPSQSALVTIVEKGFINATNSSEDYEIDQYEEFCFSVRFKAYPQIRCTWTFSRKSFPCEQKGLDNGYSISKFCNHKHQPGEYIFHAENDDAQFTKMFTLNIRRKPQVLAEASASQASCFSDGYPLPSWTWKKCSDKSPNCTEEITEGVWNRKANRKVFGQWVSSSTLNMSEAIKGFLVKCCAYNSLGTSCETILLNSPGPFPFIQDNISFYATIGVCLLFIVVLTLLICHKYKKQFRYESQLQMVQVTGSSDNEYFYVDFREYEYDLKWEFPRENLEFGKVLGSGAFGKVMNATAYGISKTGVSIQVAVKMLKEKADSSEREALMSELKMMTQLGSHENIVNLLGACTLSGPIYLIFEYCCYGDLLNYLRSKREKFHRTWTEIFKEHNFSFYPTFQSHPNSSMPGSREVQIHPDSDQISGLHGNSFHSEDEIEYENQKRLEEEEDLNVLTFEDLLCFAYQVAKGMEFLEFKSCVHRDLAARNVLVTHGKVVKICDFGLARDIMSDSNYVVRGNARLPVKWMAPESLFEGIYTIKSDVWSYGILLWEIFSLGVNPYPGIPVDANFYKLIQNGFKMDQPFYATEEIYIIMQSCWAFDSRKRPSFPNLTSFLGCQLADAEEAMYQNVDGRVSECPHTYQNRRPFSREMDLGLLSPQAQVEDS

[3] = plus IL3, 96 well, read-out: BAF3-FGFR 1 (PLUS IL3) 96 well pIC50 (converted)
[4] = plus IL3, 384 well, read-out: BAF3-FGFR 1 (PLUS IL3) 384 well pIC50 (converted)

CCOC(=O)c1ncn(-c2cnc3ccc(N(CC4CC4)c4cc(OC)cc(OC)c4)cc3n2)c1C [Compound 65]
IC50 [1, 3]: > 10 µM | IC50 [1, 4]: > 10 µM | BAF3-FLT3 (MIN IL3) 96 well pIC50 ([2]; minus IL3): <5 | BAF3-FLT3 (MIN IL3) 384 well pIC50 ([2]; minus IL3): <5

COc1cc(OC)cc(N(CC2CC2)c2ccc3ncc(-n4nccc4C)nc3c2)c1 [Compound 62]
IC50 [1, 3]: > 10 µM | IC50 [1, 4]: > 10 µM | BAF3-FLT3 (MIN IL3) 96 well pIC50 ([2]; minus IL3): <5 | BAF3-FLT3 (MIN IL3) 384 well pIC50 ([2]; minus IL3): <5

COc1cc(OC)cc(N(CC(O)C(F)(F)F)c2ccc3ncc(-c4cccnc4)nc3c2)c1 (single isomer, unassigned) [Compound 54]
BAF3-FGFR 1 (PLUS IL3) 384 well pIC50 ([1]; plus IL3, 384 well): <5 | BAF3-FLT3 (MIN IL3) 384 well pIC50 ([2]; minus IL3): <5

CNc1ccc(-c2cnc3ccc(N(CCCO)c4cc(OC)cc(OC)c4)cc3n2)cn1 [Compound 116]
IC50 [1, 4]: > 10 µM | BAF3-FLT3 (MIN IL3) 384 well pIC50 ([2]; minus IL3): <5

COc1cc(OC)cc(N(CC2CC2)c2ccc3ncc(-c4ccn(C)c4)nc3c2)c1 [Compound 73]
IC50 [1, 3]: > 10 µM | IC50 [1, 4]: > 10 µM | BAF3-FLT3 (MIN IL3) 96 well pIC50 ([2]; minus IL3): 5.31 | BAF3-FLT3 (MIN IL3) 384 well pIC50 ([2]; minus IL3): 5.03

COc1cc(OC)cc(N(CC(O)CO)c2ccc3ncc(-c4ccc(N)nc4)nc3c2)c1 (stereo not shown) [Compound 74]
IC50 [1, 4]: > 10 µM | BAF3-FLT3 (MIN IL3) 384 well pIC50 ([2]; minus IL3): <5

COc1cc(OC)cc(N(CC2CC2)c2ccc3ncc(-c4cnn(C)n4)nc3c2)c1 [Compound 70]
IC50 [1, 3]: > 10 µM | IC50 [1, 4]: > 10 µM | BAF3-FLT3 (MIN IL3) 96 well pIC50 ([2]; minus IL3): <5 | BAF3-FLT3 (MIN IL3) 384 well pIC50 ([2]; minus IL3): <5

COc1cc(OC)cc(N(CC2CC2)c2ccc3ncc(-c4ccc5c(ccn5C)c4)nc3c2)c1 [Compound 20]
IC50 [1, 4]: > 10 µM | BAF3-FLT3 (MIN IL3) 96 well pIC50 ([2]; minus IL3, 96 well): <5 | BAF3-FLT3 (MIN IL3) 384 well pIC50 ([2]; minus IL3, 384 well): <5

COc1cc(OC)cc(N(CC2CC2)c2ccc3ncc(-c4cnnn4C)nc3c2)c1 [Compound 72]
IC50 [1, 3]: 7.94 µM | IC50 [1, 4]: > 10 µM | BAF3-FLT3 (MIN IL3) 96 well pIC50 ([2]; minus IL3): <5 | BAF3-FLT3 (MIN IL3) 384 well pIC50 ([2]; minus IL3): 5.09

COc1cc(OC)cc(N(CC2CC2)c2ccc3ncc(-c4nnn[nH]4)nc3c2)c1 [Compound 41]
IC50 [1, 3]: > 10 µM | IC50 [1, 4]: > 10 µM | BAF3-FLT3 (MIN IL3) 96 well pIC50 ([2]; minus IL3): <5 | BAF3-FLT3 (MIN IL3) 384 well pIC50 ([2]; minus IL3): <5

COc1cc(OC)cc(N(CC2CC2)c2ccc3ncc(-n4ccnc4C)nc3c2)c1 [Compound 32]
IC50 [1, 3]: > 10 µM | IC50 [1, 4]: > 10 µM | BAF3-FLT3 (MIN IL3) 96 well pIC50 ([2]; minus IL3): <5 | BAF3-FLT3 (MIN IL3) 384 well pIC50 ([2]; minus IL3): <5

COc1cc(OC)cc(N(CC2CC2)c2ccc3ncc(-n4cnc(C)c4)nc3c2)c1 [Compound 30]
IC50 [1, 3]: > 10 µM | IC50 [1, 4]: > 10 µM | BAF3-FLT3 (MIN IL3) 96 well pIC50 ([2]; minus IL3): 5.06 | BAF3-FLT3 (MIN IL3) 384 well pIC50 ([2]; minus IL3): <5

COc1cc(OC)cc(N(CCO)c2ccc3ncc(-c4ccnc(C(=O)NCCCN)c4)nc3c2)c1 [Compound 123]
IC50 [1, 4]: > 10 µM | BAF3-FLT3 (MIN IL3) 384 well pIC50 ([2]; minus IL3): <5

COc1cc(OC)cc(N(CC2CC2)c2ccc3ncc(-c4ccnn4C)nc3c2)c1 [Compound 18]
IC50 [1, 3]: > 10 µM | IC50 [1, 4]: > 10 µM | BAF3-FLT3 (MIN IL3) 96 well pIC50 ([2]; minus IL3): <5 | BAF3-FLT3 (MIN IL3) 384 well pIC50 ([2]; minus IL3): <5

COCCCN(c1cc(OC)cc(OC)c1)c1ccc2ncc(-c3ccn(C)c3)nc2c1 [Compound 3]
IC50 [1, 4]: > 10 µM | BAF3-FLT3 (MIN IL3) 384 well pIC50 ([2]; minus IL3): 5.07

COc1cc(OC)cc(N(CC(O)C(F)(F)F)c2ccc3ncc(-c4cccnc4)nc3c2)c1 (single isomer, unassigned) [Compound 53]
IC50 [1, 4]: > 10 µM | BAF3-FLT3 (MIN IL3) 384 well pIC50 ([2]; minus IL3): <5

COc1cc(OC)cc(N(CC2CC2)c2ccc3ncc(-c4ocnc4C)nc3c2)c1 [Compound 104]
IC50 [1, 4]: > 10 µM | BAF3-FLT3 (MIN IL3) 384 well pIC50 ([2]; minus IL3): <5

COc1cc(OC)cc(N(CC(OC(C)=O)C(F)(F)F)c2ccc3ncc(-c4cccnc4)nc3c2)c1 (single isomer, unassigned) [Compound 75]
BAF3-FGFR 1 (PLUS IL3) 384 well pIC50 ([1]; plus IL3, 384 well): <5 | BAF3-FLT3 (MIN IL3) 384 well pIC50 ([2]; minus IL3): <5

CNC(=O)c1cc(-c2cnc3ccc(N(CCNC(C)C)c4cc(OC)cc(OC)c4)cc3n2)ccn1 [Compound 14]
IC50 [1, 4]: ~7.08 µM | BAF3-FLT3 (MIN IL3) 384 well pIC50 ([2]; minus IL3): 5.02

CNC(=O)OCCN(c1cc(OC)cc(OC)c1)c1ccc2ncc(-c3ccc(NC(=O)OC(C)(C)C)nc3)nc2c1 [Compound 80]
IC50 [1, 4]: > 10 µM | BAF3-FLT3 (MIN IL3) 384 well pIC50 ([2]; minus IL3): <5

COc1cc(OC)cc(N(CC2CC2)c2ccc3ncc(C#Cc4ccncc4)nc3c2)c1 [Compound 23]
IC50 [1, 3]: 5.89 µM | IC50 [1, 4]: > 10 µM | BAF3-FLT3 (MIN IL3) 96 well pIC50 ([2]; minus IL3): 5.31 | BAF3-FLT3 (MIN IL3) 384 well pIC50 ([2]; minus IL3): <5

COc1cc(OC)cc(N(CCCO)c2ccc3ncc(-c4ccc(N5CCOCC5)nc4)nc3c2)c1 [Compound 124]
IC50 [1, 4]: > 10 µM | BAF3-FLT3 (MIN IL3) 384 well pIC50 ([2]; minus IL3): <5

COc1cc(OC)cc(N(CCNC(C)C)c2ccc3ncc(-c4ccn(C)c4)nc3c2)c1 [Compound 8]
IC50 [1, 4]: > 10 µM | BAF3-FLT3 (MIN IL3) 384 well pIC50 ([2]; minus IL3): 5.2

COc1cc(OC)cc(N(CC2CO2)c2ccc3ncc(-c4ccc(N)nc4)nc3c2)c1 (stereo not shown) [Compound 110]
IC50 [1, 4]: > 10 µM | BAF3-FLT3 (MIN IL3) 384 well pIC50 ([2]; minus IL3): 5.04

COc1cc(OC)cc(N(CC2CC2)c2ccc3ncc(-c4cnco4)nc3c2)c1 [Compound 55]
IC50 [1, 3]: > 10 µM | IC50 [1, 4]: > 10 µM | BAF3-FLT3 (MIN IL3) 96 well pIC50 ([2]; minus IL3): <5 | BAF3-FLT3 (MIN IL3) 384 well pIC50 ([2]; minus IL3): <5

COc1cc(OC)cc(N(CC2CC2)c2ccc3ncc(-c4ccn(CCO)c4)nc3c2)c1 [Compound 56]
IC50 [1, 3]: > 10 µM | IC50 [1, 4]: > 10 µM | BAF3-FLT3 (MIN IL3) 96 well pIC50 ([2]; minus IL3): <5 | BAF3-FLT3 (MIN IL3) 384 well pIC50 ([2]; minus IL3): <5

COc1cc(OC)cc(N(CCO)c2ccc3ncc(-c4ccncc4)nc3c2)c1 [Compound 11]
IC50 [1, 4]: > 10 µM | BAF3-FLT3 (MIN IL3) 384 well pIC50 ([2]; minus IL3): <5

COc1cc(OC)cc(N(CC2CC2)c2ccc3ncc(-c4cn(C)nn4)nc3c2)c1 [Compound 71]
IC50 [1, 3]: > 10 µM | IC50 [1, 4]: > 10 µM | BAF3-FLT3 (MIN IL3) 96 well pIC50 ([2]; minus IL3): <5 | BAF3-FLT3 (MIN IL3) 384 well pIC50 ([2]; minus IL3): <5

COc1cc(OC)cc(N(CCO)c2ccc3ncc(-c4ccccc4)nc3c2)c1 [Compound 120]
IC50 [1, 4]: > 10 µM | BAF3-FLT3 (MIN IL3) 384 well pIC50 ([2]; minus IL3): <5

COc1cc(OC)cc(N(CCO)c2ccc3ncc(-c4ccc(OC)nc4)nc3c2)c1 [Compound 111]
IC50 [1, 4]: > 10 µM | BAF3-FLT3 (MIN IL3) 384 well pIC50 ([2]; minus IL3): <5

COc1cc(OC)cc(N(CCNC(C)C)c2ccc3ncc(-c4ccc(N)nc4)nc3c2)c1 [Compound 17]
IC50 [1, 4]: ~7.76 µM | BAF3-FLT3 (MIN IL3) 384 well pIC50 ([2]; minus IL3): 5.17

COc1cc(OC)cc(N(CC2CC2)c2ccc3ncc(-c4cn[nH]n4)nc3c2)c1 [Compound 69]
IC50 [1, 3]: > 10 µM | IC50 [1, 4]: > 10 µM | BAF3-FLT3 (MIN IL3) 96 well pIC50 ([2]; minus IL3): <5 | BAF3-FLT3 (MIN IL3) 384 well pIC50 ([2]; minus IL3): <5

COc1cc(OC)cc(N(CC(OC(C)=O)C(F)(F)F)c2ccc3ncc(-c4cccnc4)nc3c2)c1 (single isomer, unassigned) [Compound 45]
IC50 [1, 4]: > 10 µM | BAF3-FLT3 (MIN IL3) 384 well pIC50 ([2]; minus IL3): <5

COc1cc(OC)cc(N(CCCO)c2ccc3ncc(-c4ccc(N5CCNCC5)nc4)nc3c2)c1 [Compound 48]
IC50 [1, 4]: ~5.25 µM | BAF3-FLT3 (MIN IL3) 384 well pIC50 ([2]; minus IL3): 5.44
